Earlier results as cited in US20090317464A1, “METHODS AND COMPOSITIONS FOR PRODUCING ANTI-ANDROGENIC EFFECTS” (PANACEA BIOTEC LTD., priority 2006, published 2009).

SMILES: CC(O)(CS(=O)(=O)c1ccc(F)cc1)C(=O)Nc1ccc(C#N)c(C(F)(F)F)c1 (stereo not drawn) [Bicalutamide, 4-cyano-3-trifluoromethyl-N-(3-p-fluorophenylsulphony 1-2-hydroxy-2-methylpropionyl) aniline]
- steady state concentration (Css) versus dose (daily administration to patients, above 300 mg, studied at 450 and 600 mg dose): no further increase in Css is observed
- half life (in vivo): approximately 5.8 days
- time to peak plasma concentration (in vivo): about 31 hours
